# Data from PubChem BioAssay (NCI).
# Values joined by “and” are separate entries in the source; they are usually repeats but may differ in a detail not shown here. Equal values may be shown once.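 Values below derive from 48-hour exposures of cells grown in 96-well plates, with endpoints linearly interpolated between the two concentrations bracketing the appropriate inhibition level. GI50: concentration for 50% inhibition of growth. TGI is the concentration that stops growth completely.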
# How the values were obtained:
# Test in all cases: NCI-60 cell line screen, 48 h
# SF-539 CNS = test system: SF-539 CNS
# MALME-3M melanoma = test system: MALME-3M melanoma
# MCF7 breast = test system: MCF7 breast
# UACC-62 melanoma = test system: UACC-62 melanoma
# TK-10 renal = test system: TK-10 renal
# HT29 colon = test system: HT29 colon
# A549 NSCLC = test system: A549 NSCLC
# SN12C renal = test system: SN12C renal
# NCI-H460 lung = test system: NCI-H460 lung
# SR leukemia = test system: SR leukemia
# CAKI-1 renal = test system: CAKI-1 renal
# NCI-H226 lung = test system: NCI-H226 lung
# OVCAR-8 ovarian = test system: OVCAR-8 ovarian
# SK-MEL-5 melanoma = test system: SK-MEL-5 melanoma
# HOP-62 NSCLC = test system: HOP-62 NSCLC
# MDA-N = test system: MDA-N
# HL-60(TB) leukemia = test system: HL-60(TB) leukemia
# U251 CNS = test system: U251 CNS
# MDA-MB-435 = test system: MDA-MB-435
# SK-OV-3 ovarian = test system: SK-OV-3 ovarian
# NCI-H23 lung = test system: NCI-H23 lung
# SNB-19 CNS = test system: SNB-19 CNS
# HCT-116 colon = test system: HCT-116 colon
# ACHN renal = test system: ACHN renal
# K-562 leukemia = test system: K-562 leukemia
# OVCAR-5 ovarian = test system: OVCAR-5 ovarian
# HS 578T breast = test system: HS 578T breast
# HCC-2998 colon = test system: HCC-2998 colon
# DU-145 prostate = test system: DU-145 prostate
# SNB-75 CNS = test system: SNB-75 CNS
# SF-268 CNS = test system: SF-268 CNS
# BT-549 breast = test system: BT-549 breast
# MOLT-4 leukemia = test system: MOLT-4 leukemia
# RXF 393 renal = test system: RXF 393 renal
# 786-0 renal = test system: 786-0 renal
# UACC-257 melanoma = test system: UACC-257 melanoma
# SK-MEL-28 melanoma = test system: SK-MEL-28 melanoma
# OVCAR-3 ovarian = test system: OVCAR-3 ovarian
# NCI-H522 lung = test system: NCI-H522 lung
# A498 renal = test system: A498 renal
# SW-620 colon = test system: SW-620 colon
# EKVX NSCLC = test system: EKVX NSCLC
# CCRF-CEM leukemia = test system: CCRF-CEM leukemia
# T-47D breast = test system: T-47D breast
# RPMI-8226 leukemia = test system: RPMI-8226 leukemia
# COLO 205 colon = test system: COLO 205 colon
# NCI/ADR-RES ovarian = test system: NCI/ADR-RES ovarian
# IGROV1 ovarian = test system: IGROV1 ovarian
# UO-31 renal = test system: UO-31 renal
# LOX IMVI melanoma = test system: LOX IMVI melanoma
# MDA-MB-231 breast = test system: MDA-MB-231 breast
# HOP-92 NSCLC = test system: HOP-92 NSCLC
# HCT-15 colon = test system: HCT-15 colon
# M14 melanoma = test system: M14 melanoma
# OVCAR-4 ovarian = test system: OVCAR-4 ovarian
# SF-295 CNS = test system: SF-295 CNS
# SK-MEL-2 melanoma = test system: SK-MEL-2 melanoma
# PC-3 prostate = test system: PC-3 prostate
# KM12 colon = test system: KM12 colon
smiles,measurement,setting,value
COc1cc(-c2cc(=O)c3c(OC)c(OC)c(OC)c(OC)c3o2)cc(OC)c1OC,TGI,SF-539 CNS,> 100 µM
same,TGI,MALME-3M melanoma,> 100 µM
same,TGI,MCF7 breast,> 100 µM
same,TGI,UACC-62 melanoma,89.5 µM
same,TGI,TK-10 renal,> 100 µM
same,TGI,HT29 colon,> 100 µM
same,TGI,A549 NSCLC,> 100 µM
same,TGI,SN12C renal,> 100 µM
same,TGI,NCI-H460 lung,> 100 µM
same,TGI,SR leukemia,> 100 µM
same,TGI,CAKI-1 renal,> 100 µM
same,TGI,NCI-H226 lung,> 100 µM
same,TGI,OVCAR-8 ovarian,> 100 µM
same,TGI,SK-MEL-5 melanoma,39.5 µM
same,TGI,HOP-62 NSCLC,> 100 µM
same,TGI,MDA-N,> 100 µM
same,TGI,HL-60(TB) leukemia,67.5 µM
same,TGI,U251 CNS,> 100 µM
same,TGI,MDA-MB-435,> 100 µM
same,TGI,SK-OV-3 ovarian,> 100 µM
same,TGI,NCI-H23 lung,> 100 µM
same,TGI,SNB-19 CNS,> 100 µM
same,TGI,HCT-116 colon,> 100 µM
same,TGI,ACHN renal,> 100 µM
same,TGI,K-562 leukemia,> 100 µM
same,TGI,OVCAR-5 ovarian,> 100 µM
same,TGI,HS 578T breast,> 100 µM
same,TGI,HCC-2998 colon,> 100 µM
same,TGI,DU-145 prostate,> 100 µM
same,TGI,SNB-75 CNS,> 100 µM
same,TGI,SF-268 CNS,> 100 µM
same,TGI,BT-549 breast,> 100 µM
same,TGI,MOLT-4 leukemia,> 100 µM
same,TGI,RXF 393 renal,> 100 µM
same,TGI,786-0 renal,> 100 µM
same,TGI,UACC-257 melanoma,> 100 µM
same,TGI,SK-MEL-28 melanoma,> 100 µM
same,TGI,OVCAR-3 ovarian,> 100 µM
same,TGI,NCI-H522 lung,51.1 µM
same,TGI,A498 renal,85.2 µM
same,TGI,SW-620 colon,> 100 µM
same,TGI,EKVX NSCLC,> 100 µM
same,TGI,CCRF-CEM leukemia,> 100 µM
same,TGI,T-47D breast,70.5 µM
same,TGI,RPMI-8226 leukemia,> 100 µM
same,TGI,COLO 205 colon,40 µM
same,TGI,NCI/ADR-RES ovarian,84 µM
same,TGI,IGROV1 ovarian,> 100 µM
same,TGI,UO-31 renal,> 100 µM
same,TGI,LOX IMVI melanoma,83.1 µM
same,TGI,MDA-MB-231 breast,> 100 µM
same,TGI,HOP-92 NSCLC,86.6 µM
same,TGI,HCT-15 colon,> 100 µM
same,TGI,M14 melanoma,> 100 µM
same,TGI,OVCAR-4 ovarian,> 100 µM
same,TGI,SF-295 CNS,> 100 µM
same,TGI,SK-MEL-2 melanoma,> 100 µM
N#Cc1c(-c2ccccc2)c(C#N)c(=S)n(C2OC(CO)C(O)C(O)C2O)c1N (stereo unspecified),TGI,SF-539 CNS,> 100 µM
same,TGI,MALME-3M melanoma,> 100 µM
same,GI50,MCF7 breast,91.1 µM and 41.6 µM
same,TGI,MCF7 breast,> 100 µM
same,TGI,UACC-62 melanoma,> 100 µM
same,GI50,TK-10 renal,40.5 µM and > 100 µM
same,TGI,TK-10 renal,> 100 µM
same,TGI,HT29 colon,> 100 µM
same,TGI,A549 NSCLC,> 100 µM
same,TGI,SN12C renal,> 100 µM
same,TGI,NCI-H460 lung,> 100 µM
same,TGI,SR leukemia,> 100 µM
same,TGI,CAKI-1 renal,> 100 µM
same,TGI,NCI-H226 lung,> 100 µM
same,TGI,OVCAR-8 ovarian,> 100 µM
same,TGI,SK-MEL-5 melanoma,> 100 µM
same,GI50,HOP-62 NSCLC,> 100 µM and 36 µM
same,TGI,HOP-62 NSCLC,> 100 µM
same,TGI,PC-3 prostate,> 100 µM
same,TGI,MDA-N,> 100 µM
same,TGI,HL-60(TB) leukemia,> 100 µM
same,TGI,U251 CNS,> 100 µM
same,TGI,NCI-H23 lung,> 100 µM
same,TGI,SNB-19 CNS,> 100 µM
same,TGI,HCT-116 colon,> 100 µM
same,TGI,ACHN renal,> 100 µM
same,TGI,K-562 leukemia,> 100 µM
same,TGI,OVCAR-5 ovarian,> 100 µM
same,TGI,HS 578T breast,> 100 µM
same,TGI,HCC-2998 colon,> 100 µM
same,TGI,DU-145 prostate,> 100 µM
same,TGI,SNB-75 CNS,> 100 µM
same,TGI,SF-268 CNS,> 100 µM
same,TGI,BT-549 breast,> 100 µM
same,GI50,MOLT-4 leukemia,39.3 µM and > 100 µM
same,TGI,MOLT-4 leukemia,> 100 µM
same,TGI,RXF 393 renal,> 100 µM
same,TGI,786-0 renal,> 100 µM
same,TGI,UACC-257 melanoma,> 100 µM
same,TGI,SK-MEL-28 melanoma,> 100 µM
same,TGI,OVCAR-3 ovarian,> 100 µM
same,TGI,NCI-H522 lung,> 100 µM
same,TGI,KM12 colon,> 100 µM
same,TGI,A498 renal,> 100 µM
same,TGI,SW-620 colon,> 100 µM
same,GI50,EKVX NSCLC,44.4 µM and > 100 µM
same,TGI,EKVX NSCLC,> 100 µM
same,TGI,CCRF-CEM leukemia,> 100 µM
same,TGI,T-47D breast,> 100 µM
same,TGI,RPMI-8226 leukemia,> 100 µM
same,GI50,IGROV1 ovarian,> 100 µM and 45.5 µM
same,TGI,IGROV1 ovarian,> 100 µM
same,GI50,UO-31 renal,> 100 µM and 40.3 µM
same,TGI,UO-31 renal,> 100 µM
same,TGI,LOX IMVI melanoma,> 100 µM
same,TGI,MDA-MB-231 breast,> 100 µM
same,GI50,HOP-92 NSCLC,42 µM and 21 µM
same,TGI,HOP-92 NSCLC,> 100 µM
same,TGI,HCT-15 colon,> 100 µM
same,TGI,M14 melanoma,> 100 µM
same,TGI,OVCAR-4 ovarian,> 100 µM
same,TGI,SF-295 CNS,> 100 µM
same,TGI,SK-MEL-2 melanoma,> 100 µM
CC(C)(C)OC(=O)Nc1nnc(S(N)(=O)=O)s1,TGI,SF-539 CNS,> 100 µM
same,TGI,MALME-3M melanoma,> 100 µM
same,TGI,MCF7 breast,> 100 µM
same,TGI,UACC-62 melanoma,> 100 µM
same,TGI,TK-10 renal,> 100 µM
same,TGI,HT29 colon,> 100 µM
same,TGI,A549 NSCLC,> 100 µM
same,TGI,SN12C renal,> 100 µM
same,TGI,NCI-H460 lung,> 100 µM
same,TGI,SR leukemia,> 100 µM
same,TGI,CAKI-1 renal,> 100 µM
same,TGI,NCI-H226 lung,> 100 µM
same,TGI,OVCAR-8 ovarian,> 100 µM
same,TGI,SK-MEL-5 melanoma,> 100 µM
same,TGI,HOP-62 NSCLC,> 100 µM
same,TGI,MDA-N,> 100 µM
same,TGI,HL-60(TB) leukemia,> 100 µM
same,TGI,U251 CNS,> 100 µM
same,TGI,MDA-MB-435,> 100 µM
same,TGI,SK-OV-3 ovarian,> 100 µM
same,TGI,NCI-H23 lung,> 100 µM
same,TGI,SNB-19 CNS,> 100 µM
same,TGI,HCT-116 colon,> 100 µM
same,TGI,ACHN renal,> 100 µM
same,TGI,K-562 leukemia,> 100 µM
same,TGI,OVCAR-5 ovarian,> 100 µM
same,TGI,HS 578T breast,> 100 µM
same,TGI,HCC-2998 colon,> 100 µM
same,TGI,DU-145 prostate,> 100 µM
same,TGI,SF-268 CNS,> 100 µM
same,TGI,BT-549 breast,> 100 µM
same,TGI,MOLT-4 leukemia,> 100 µM
same,TGI,RXF 393 renal,> 100 µM
same,TGI,786-0 renal,> 100 µM
same,TGI,UACC-257 melanoma,> 100 µM
same,TGI,SK-MEL-28 melanoma,> 100 µM
same,TGI,OVCAR-3 ovarian,> 100 µM
same,TGI,NCI-H522 lung,> 100 µM
same,TGI,KM12 colon,> 100 µM
same,TGI,A498 renal,> 100 µM
same,TGI,SW-620 colon,> 100 µM
same,TGI,EKVX NSCLC,> 100 µM
same,TGI,CCRF-CEM leukemia,> 100 µM
same,TGI,T-47D breast,> 100 µM
same,TGI,RPMI-8226 leukemia,> 100 µM
same,TGI,COLO 205 colon,> 100 µM
same,TGI,NCI/ADR-RES ovarian,> 100 µM
same,TGI,UO-31 renal,> 100 µM
same,TGI,LOX IMVI melanoma,> 100 µM
same,TGI,MDA-MB-231 breast,> 100 µM
same,TGI,HOP-92 NSCLC,> 100 µM
same,TGI,HCT-15 colon,> 100 µM
same,TGI,M14 melanoma,> 100 µM
same,TGI,OVCAR-4 ovarian,> 100 µM
same,TGI,SF-295 CNS,> 100 µM
same,TGI,SK-MEL-2 melanoma,> 100 µM
